# Experimental data published in paper PMC6501426 (Clinical Epigenetics, 2019).
# Legend:
# [1] = test system: methylated UCHL1 promoter EGFP reporter in HCT116 cells; assay: UCHL1 promoter demethylation assay (EGFP expression, FACS) in HCT116; format: cell-based, human; settings: 5 μM, 5 days, HCT116 with methylated pUCHL1 vector
# Method: Human colon cancer HCT116 (ATCC, VA, USA) cells were propagated in McCoy’s 5A medium (Euroclone, Milan, Italy) with 10% fetal bovine serum (FBS; Euroclone), 2 mM L-glutamine (Euroclone), and antibiotics (100 U/mL penicillin, 100 µg/mL streptomycin) (Euroclone). For the treatments with MC3353, 5-AZA, and DAC as positive controls, 2 × 10^4 cells were seeded in 6-well plates in triplicate. Cells were treated every 2 days, and the medium was changed. On day 5, cells were observed under a fluorescent microscope. The nuclei were counterstained with DAPI (10 μg/mL, Invitrogen, Tournai, Belgium).
# Fluorescence of EGFP and DAPI in living cells was analyzed by Cytation™ 5 Cell Imaging Multi-Mode Reader (BioTeK, Milan, Italy).
# Before the transfection, the pUMLIEP vector was linearized by with ClaI restriction enzyme (New England Biolabs, Milan, Italy) and then it was methylated by SssI-methylase (New England Biolabs, Milan, Italy) for 60 min. The methylated vector was transfected into HCT116 cells using Lipofectamine™2000 (Invitrogen, Monza, Italy) and Opti-MEM® (Gibco, Monza, Italy), and stably introduced clones were selected with puromycin (1.0 μg/mL, Sigma-Aldrich, Milan, Italy). The detailed protocol for the generation of cells highly responsive to DNA demethylating agents is described in [27].
# Next, the demethylating activity of MC3353 was evaluated in cells transfected with luciferase and EGFP reporter genes driven by the UCHL1 promoter. The UCHL1 promoter is silenced by methylation in human colon cancer and can be demethylated by specific treatments, inducing expression of Metridia luciferase and EGFP reporter genes. In particular, the pUCHL1 vector, after methylation, was transfected into HCT116 colon cancer cells, and the stable clone was obtained by puromycin selection. Afterwards, cells were treated with 5-AZA (5 μM), with DAC (5 μM), or with MC3353 (0.1 μM) for 5 days. Such a low MC3353 dose was used because of its cytotoxicity at higher concentrations in long treatments.
# HCT116 cells = assay: MTT proliferation assay HCT116; format: cell-based, human; settings: 24 and 48 h; MC3353 from 0.5 μM after 48 h; DAC at 10 μM
# Method: (§1) The MTT [3-(4,5-dimethylthiazol-2-yl)-2,5-diphenyltetrazolium bromide] (Sigma-Aldrich, Milan, Italy) assay was used to determine the proliferation of HCT116 clone and DKO HCT116 cells after treatment with MC3353, 5-AZA, and DAC. 5 × 10^4 cells/well for both cell lines were plated in 24-well plate and treated, in duplicate, with compounds at several concentrations for 24 and 48 h of induction. After treatments, MTT solution was added for 3 h at 0.5 mg/mL, the purple formazan crystals were dissolved in DMSO (Sigma-Aldrich, Milan, Italy), and the absorbance was read at a wavelength of 570 nm with reader TECAN M-200.
# [2] = test system: double DNMT knockout (DKO) HCT116 cells; assay: MTT proliferation assay DKO HCT116; format: cell-based, human; settings: 24 and 48 h; MC3353 at 0.5 μM after 48 h; DAC, 5-AZA up to highest dose
# Method: DKO HCT116 (ATCC, VA, USA) cells were propagated in Dulbecco’s modified Eagle medium (DMEM) (Euroclone, Milan, Italy) with 10% fetal bovine serum (FBS; Euroclone, Milan, Italy), 2 mM L-glutamine (Euroclone, Milan, Italy) and antibiotics (100 U/mL penicillin, 100 µg/mL streptomycin) (Euroclone, Milan, Italy).
# as §1
# [3] = test system: E-cadherin mRNA in HCT116 cells; assay: qPCR of E-cadherin in HCT116; format: cell-based, human; settings: MC3353 0.1 μM 24 h; 5-AZA, DAC every 2 days for 5 days at 0.1, 1, 5 μM
# Text: (§2) RNAs were extracted by ReliaPrep™ RNA Tissue Miniprep (Promega, Madison, WI, USA) and reverse transcribed with PrimeScript RT Master Mix (Takara, Kusatsu, Shiga, Japan). cDNAs were amplified by a qPCR reaction using GoTaq qPCR Master Mix (Promega) and analyzed with the oligonucleotide pairs specific for the target genes. Relative amounts, determined with the 2^(−ΔCt) method, were normalized with respect to the human housekeeping gene L32. The primers used are as follows: L32 (forward: 5′-[…]-3′, reverse: 5′-[…]-3′), E-cadherin (forward: 5′-[…]-3′, reverse: 5′-[…]-3′), and MMP2 (forward: 5′-[…]-3′, reverse: 5′-[…]-3′).
# (§3) Prompted by these findings, we investigated the ability of MC3353 to modulate EMT pathway, using 5-AZA and DAC as reference drugs. […] The levels of mRNA transcripts of E-cadherin and matrix metalloproteinase-2 (MMP2) were determined. E-cadherin is involved in the maintenance of the epithelial identity and in the control of tumor invasiveness, whereas MMP2, through degradation of type IV collagen, the most abundant component of the basement membrane, controls an essential step for metastatic progression of most cancers as well as for induction of angiogenesis.
# [4] = test system: E-cadherin mRNA in PC-3 cells; assay: qPCR of E-cadherin in PC-3; format: cell-based, human; settings: MC3353 24 h; 5-AZA, DAC 5 days, effect from 1 to 5 μM
# Text: as §2, §3
# [5] = test system: MMP2 mRNA in HCT116 cells; assay: qPCR of MMP2 in HCT116; format: cell-based, human; settings: MC3353 0.1 and 1 μM 24 h; 5-AZA, DAC 5 days, also at 0.1 to 1 μM
# Text: as §2, §3
# MMP2 mRNA in PC-3 cells = assay: qPCR of MMP2 in PC-3; format: cell-based, human; settings: MC3353 0.1 and 1 μM 24 h; 5-AZA, DAC 5 days, also at 0.1 to 1 μM
# Text: as §2, §3
# human DNMT1 = target: T1, human DNMT1 (Homo sapiens, UniProt P26358); assay: DNMT1 assay (radiolabeled SAM, Flashplate); format: biochemical; settings: radioactivity assay; at least two independent experiments; read-out: EC50 ± SD, hDNMT1
# T1 construct: His; made in house
# Method: His-DNMT1 (182 kDa, human) was cloned, expressed, and purified as described by Lee et al.. The DNMT1 assay was performed according to Gros et al.. Briefly, the DNMT1 enzymatic assay is based on the use of radiolabeled SAM, and the methylation occurs in homogeneous phase in 384-well microplates. The reaction is performed with DNMT1 at the final concentration of 90 nM in a total volume of 10 μL including also the chemical compound to be tested at the desired concentration, 1.25 μM of SAM//[methyl-^3H] SAM (3TBq/mmol) mix in a ratio of 3:1 and 0.3 μM of biotinylated DNA duplex. DNMT1, as “maintenance” methyltransferase, requires hemimethylated DNA for the reaction. After 2 h incubation at 37 °C, 8 μL of the reaction’s solution is transferred into a streptavidin 96-well scintillant coated Flashplate^TM containing 190 μL of […] in 50 mM Tris-HCl (pH 7.4). The Flashplate^TM is then agitated at room temperature for 1 h and washed. The plate is read with TopCount (PerkinElmer, Villebon-sur-Yvette, France). The greater the DNMT1 inhibition, the lower will be the scintillation signal correlated to the incorporation of the tritiated methyl groups. In this assay, the negative and positive controls were defined as wells without enzyme and wells without any compound but just DMSO, respectively.
# human C-terminal DNMT3A = target: T2, human C-terminal DNMT3A (Homo sapiens, UniProt Q9Y6K1); assay: DNMT3A restriction-based fluorescence assay; format: biochemical; settings: fluorescent assay; C-terminal catalytic domain; read-out: EC50 ± SD, hDNMT3A
# T2 construct: the C-terminal catalytic domain of human DNMT3A (hDNMT3A)
# Method: DNMT3A enzyme inhibition was adapted from the restriction-based fluorescence assay protocol described in Ceccaldi et al.. Briefly, it is performed in a 384-well microplate in a total volume of 50 μL. An oligonucleotide labeled at the 5′ end with biotin is hybridized to his complementary strand labeled at the 3′ end with 6-carboxyfluorescein. The DNA duplex thus formed contains only one single CpG site overlapping with a restriction site of a methylation sensitive restriction enzyme. The duplex is transferred in the wells coated with avidin. Thus, the duplex is fixed to the plate. The methylation reaction is performed by adding human C-terminal DNMT3A at the final concentration of 4 ng/μL in a total volume of 50 μL in the presence of the chemical compound to be tested at the desired concentration and the cofactor SAM at the final concentration of 20 μM. After incubation (1 h at 37 °C), the plate is washed and the methylation sensitive restriction enzyme HpyCH4IV is added. After 1-h incubation at 37 °C, the plate is washed and the fluorescence measured with a PerkinElmer Envision Multilabel Plate Reader (PerkinElmer, Villebon-sur-Yvette, France). The data are expressed as a percentage of inhibition vs. log concentration (M). Data are normalized referring to the “restriction control” (wells coated with labeled duplex not treated nor exposed to DNMT3A, but only cleaved by HpyCH4IV) as the maximum of inhibition (100%) and to the “DMSO control” (wells coated with labeled duplex but treated just with 0.1% DMSO exposed to DNMT3A and then to HpyCH4IV) as the minimum of inhibition (0%; total methylation).
# T2 sequence (Q9Y6K1 634-912 limits assumed): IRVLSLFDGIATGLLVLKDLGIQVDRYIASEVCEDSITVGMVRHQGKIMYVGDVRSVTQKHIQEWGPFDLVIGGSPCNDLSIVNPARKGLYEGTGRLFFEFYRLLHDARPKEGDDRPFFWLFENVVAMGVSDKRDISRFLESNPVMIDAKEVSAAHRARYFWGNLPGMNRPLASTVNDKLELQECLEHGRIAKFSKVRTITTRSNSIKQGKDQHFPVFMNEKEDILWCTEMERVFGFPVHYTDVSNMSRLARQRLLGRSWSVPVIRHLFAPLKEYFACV
# T1 sequence (P26358 whole entry): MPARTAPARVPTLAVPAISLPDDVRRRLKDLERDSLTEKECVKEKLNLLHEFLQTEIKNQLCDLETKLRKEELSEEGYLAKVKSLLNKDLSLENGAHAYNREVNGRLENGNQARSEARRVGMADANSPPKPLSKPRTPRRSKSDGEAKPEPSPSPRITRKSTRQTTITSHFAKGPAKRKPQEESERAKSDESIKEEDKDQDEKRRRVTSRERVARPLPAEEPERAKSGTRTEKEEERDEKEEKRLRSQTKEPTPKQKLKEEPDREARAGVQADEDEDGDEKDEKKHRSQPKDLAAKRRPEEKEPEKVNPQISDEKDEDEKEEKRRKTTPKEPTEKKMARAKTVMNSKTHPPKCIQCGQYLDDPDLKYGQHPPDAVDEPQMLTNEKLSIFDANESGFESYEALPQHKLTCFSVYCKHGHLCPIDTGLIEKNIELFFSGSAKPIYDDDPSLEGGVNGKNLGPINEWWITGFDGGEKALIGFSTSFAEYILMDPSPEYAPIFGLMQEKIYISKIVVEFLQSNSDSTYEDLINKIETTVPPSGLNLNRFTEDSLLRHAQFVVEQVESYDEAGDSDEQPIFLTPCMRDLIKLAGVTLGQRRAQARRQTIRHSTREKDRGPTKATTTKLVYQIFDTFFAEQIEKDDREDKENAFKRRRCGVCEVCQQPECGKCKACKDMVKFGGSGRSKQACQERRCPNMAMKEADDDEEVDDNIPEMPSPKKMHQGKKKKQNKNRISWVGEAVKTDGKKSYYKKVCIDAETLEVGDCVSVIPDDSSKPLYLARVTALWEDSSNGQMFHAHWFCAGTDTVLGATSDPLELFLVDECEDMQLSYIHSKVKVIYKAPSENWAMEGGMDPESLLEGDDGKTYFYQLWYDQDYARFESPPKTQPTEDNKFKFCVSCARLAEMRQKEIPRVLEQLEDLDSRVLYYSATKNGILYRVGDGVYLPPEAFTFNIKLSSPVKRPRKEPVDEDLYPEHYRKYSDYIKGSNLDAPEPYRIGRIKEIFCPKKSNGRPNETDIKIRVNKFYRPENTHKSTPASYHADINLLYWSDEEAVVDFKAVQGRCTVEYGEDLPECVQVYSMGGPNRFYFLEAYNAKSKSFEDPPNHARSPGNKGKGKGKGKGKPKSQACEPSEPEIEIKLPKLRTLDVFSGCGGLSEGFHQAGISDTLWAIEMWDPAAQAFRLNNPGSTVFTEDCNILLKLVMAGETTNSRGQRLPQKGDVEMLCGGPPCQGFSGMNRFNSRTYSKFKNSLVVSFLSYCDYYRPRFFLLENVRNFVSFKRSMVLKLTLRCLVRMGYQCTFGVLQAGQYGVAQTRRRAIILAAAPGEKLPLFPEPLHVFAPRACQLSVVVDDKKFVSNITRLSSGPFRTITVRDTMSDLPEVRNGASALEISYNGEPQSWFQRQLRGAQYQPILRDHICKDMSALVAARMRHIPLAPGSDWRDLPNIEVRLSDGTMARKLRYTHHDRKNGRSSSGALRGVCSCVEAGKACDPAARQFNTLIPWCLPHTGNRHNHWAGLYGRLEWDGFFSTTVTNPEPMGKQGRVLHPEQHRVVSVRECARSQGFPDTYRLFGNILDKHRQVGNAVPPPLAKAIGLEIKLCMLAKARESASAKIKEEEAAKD
SMILES,EGFP gene expression induction (FACS) [1] [%],effect on HCT116 proliferation (MTT) (HCT116 cells),effect on DKO HCT116 proliferation (MTT) [2],"E-cadherin mRNA expression, HCT116 [3]","E-cadherin mRNA expression, PC-3 [4]","MMP2 mRNA expression, HCT116 [5]","MMP2 mRNA expression, PC-3 (MMP2 mRNA in PC-3 cells)",EC50 (human DNMT1) [µM],EC50 (human C-terminal DNMT3A) [µM]
"Nc1ncn([C@@H]2O[C@H](CO)[C@@H](O)[C@H]2O)c(=O)n1 [Compound 5-AZA, 5-azacytidine]",38.5,negligible effect,weak effect,able to induce E-cadherin expression,able to induce E-cadherin expression,increased MMP2 level,increased MMP2 level,,
"O=C(O)C(Cc1c[nH]c2ccccc12)N1C(=O)c2ccccc2C1=O (stereo not drawn) [RG-108, reference compound]",,,,,,,,390 ± 50,> 500
